GI50 and TGI data for 8 molecules are collected here from PubChem BioAssay (NCI).

“And” between values parts separate entries of the source, which are not always exact repeats. Identical values can stand only once.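 Protocol summary: plate cells (96-well), add compound at 5 concentrations, incubate 48 h, interpolate endpoints linearly. Abbreviation: GI50, concentration required for 50% inhibition of growth. TGI is the concentration that stops growth completely.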

Test systems include U251 CNS; RPMI-8226 leukemia; NCI-H522 lung; A549 NSCLC; SK-MEL-2 melanoma; CAKI-1 renal; RXF 393 renal; MALME-3M melanoma; COLO 205 colon; SK-MEL-5 melanoma.
Holding throughout (test): inhibition of tumour cell growth, NCI panel, 48 h

For `O=c1c(Oc2ccc(F)cc2F)cc2cnc(NC3CCOCC3)nc2n1CCCO`, the GI50 in the assay on U251 CNS, with RPMI-8226 leukemia, with NCI-H522 lung, in the assay on A549 NSCLC, in the assay with SK-MEL-2 melanoma and in the assay on CAKI-1 renal was greater than 25 µM in each case. Moreover, the GI50 with RXF 393 renal, with MALME-3M melanoma, with COLO 205 colon and in the assay with SK-MEL-5 melanoma was greater than 25 µM throughout. Also, the TGI in the assay with U251 CNS, with RPMI-8226 leukemia, in the assay on NCI-H522 lung, with A549 NSCLC, with SK-MEL-2 melanoma and in the assay on CAKI-1 renal was greater than 25 µM in each case. In addition, the TGI in the assay on RXF 393 renal, with MALME-3M melanoma, in the assay on COLO 205 colon and with SK-MEL-5 melanoma was greater than 25 µM throughout.

For the molecule `COc1ccc(S(=O)(=O)Nc2ccccc2C(=O)O)cc1`, the TGI in the assay with U251 CNS, in the assay on RPMI-8226 leukemia, in the assay on NCI-H522 lung, in the assay on A549 NSCLC, in the assay on SK-MEL-2 melanoma and in the assay with CAKI-1 renal was greater than 100 µM throughout. Also, the TGI in the assay on RXF 393 renal, in the assay with MALME-3M melanoma, in the assay on COLO 205 colon and with SK-MEL-5 melanoma was greater than 100 µM each time.

Take `COc1cccc(-c2cc(=O)c3cc(OC)ccc3[nH]2)c1`: the GI50 was 0.057 µM in the assay on U251 CNS; 0.0288 µM in the assay on RPMI-8226 leukemia; 0.121 µM and 0.0373 µM in the assay with NCI-H522 lung; 0.305 µM in the assay on A549 NSCLC; 0.0774 µM in the assay on SK-MEL-2 melanoma; 0.0319 µM with CAKI-1 renal. Further, the GI50 in the assay with RXF 393 renal is 0.0144 µM; in the assay on MALME-3M melanoma, 0.0479 µM; with COLO 205 colon, 0.0741 µM. For the same molecule, the TGI in the assay on U251 CNS was 3.36 µM and 13.2 µM; in the assay with NCI-H522 lung it was 0.392 µM and 0.175 µM; with A549 NSCLC, greater than 100 µM; in the assay on SK-MEL-2 melanoma, 7.11 µM and 20.2 µM; with CAKI-1 renal, greater than 100 µM; in the assay on RXF 393 renal, 0.224 µM. The TGI with MALME-3M melanoma is greater than 100 µM; with COLO 205 colon, 0.48 µM and 0.411 µM; in the assay on SK-MEL-5 melanoma, 2.57 µM.

On to `COc1ccc(C(=O)/C=C/c2ccc(C)cc2)cc1OC`, for which the GI50 in the assay on U251 CNS was 4.78 µM; with RPMI-8226 leukemia it was 17.5 µM; in the assay with NCI-H522 lung, 11.1 µM; in the assay with A549 NSCLC, 11.2 µM; with SK-MEL-2 melanoma it was 15.9 µM; in the assay with CAKI-1 renal it was 18.1 µM. The GI50 is 12.2 µM in the assay on RXF 393 renal, 15.9 µM in the assay on MALME-3M melanoma, 10.1 µM in the assay with COLO 205 colon and 12.5 µM in the assay on SK-MEL-5 melanoma. For the same molecule, the TGI came out at 17.3 µM in the assay with U251 CNS; 47 µM with RPMI-8226 leukemia; 26.4 µM in the assay on NCI-H522 lung; 26 µM in the assay on A549 NSCLC; 40.1 µM in the assay with SK-MEL-2 melanoma; 52.8 µM with CAKI-1 renal. In addition, the TGI in the assay on RXF 393 renal was determined as 26.4 µM; in the assay on MALME-3M melanoma, 36 µM; with COLO 205 colon, 21.6 µM; in the assay on SK-MEL-5 melanoma, 25 µM.

For the molecule `OCc1ccc(-c2ccc(-c3ccc(CO)o3)[se]2)o1`, the GI50 in the assay with U251 CNS is greater than 76.4 µM; in the assay with RPMI-8226 leukemia it was 33.7 µM; in the assay with NCI-H522 lung it was 53.4 µM; with A549 NSCLC, greater than 59.8 µM; with SK-MEL-2 melanoma, greater than 84.5 µM; in the assay on CAKI-1 renal, greater than 100 µM. The GI50 in the assay on RXF 393 renal is greater than 100 µM; in the assay on MALME-3M melanoma, greater than 100 µM; in the assay on COLO 205 colon, 60.2 µM; in the assay on SK-MEL-5 melanoma, 34.8 µM. The TGI in the assay with U251 CNS, with RPMI-8226 leukemia, with NCI-H522 lung, in the assay with A549 NSCLC, in the assay with SK-MEL-2 melanoma and in the assay on CAKI-1 renal was greater than 100 µM throughout. For the same molecule, the TGI in the assay with RXF 393 renal, with MALME-3M melanoma, in the assay with COLO 205 colon and in the assay on SK-MEL-5 melanoma was greater than 100 µM in each case.

As for `CC(=O)[O][Ga]([Cl])[O]C(C)=O`, the GI50 in the assay with U251 CNS, in the assay with RPMI-8226 leukemia, in the assay on NCI-H522 lung, in the assay on A549 NSCLC, in the assay on SK-MEL-2 melanoma and with CAKI-1 renal was greater than 100 µM throughout. Also, the GI50 with RXF 393 renal, in the assay with MALME-3M melanoma, in the assay on COLO 205 colon and in the assay with SK-MEL-5 melanoma was greater than 100 µM in each case. Also, the TGI in the assay on U251 CNS, in the assay with RPMI-8226 leukemia, in the assay on NCI-H522 lung, with A549 NSCLC, in the assay with SK-MEL-2 melanoma and with CAKI-1 renal was greater than 100 µM throughout. The TGI in the assay with RXF 393 renal, with MALME-3M melanoma, in the assay with COLO 205 colon and in the assay with SK-MEL-5 melanoma was greater than 100 µM each time.

With `Cc1nn(-c2nc3ccccc3[nH]2)c(N)c1-c1ccc(Cl)cc1`, the GI50 in the assay on U251 CNS is 3.18 µM; with RPMI-8226 leukemia, 4.37 µM; in the assay on NCI-H522 lung, 4.04 µM; in the assay with A549 NSCLC, 2.9 µM; in the assay with SK-MEL-2 melanoma, 5.88 µM; in the assay with CAKI-1 renal, 8.82 µM. Besides, the GI50 with RXF 393 renal was 4.26 µM; with MALME-3M melanoma, 4.69 µM; in the assay on COLO 205 colon, 4.17 µM; with SK-MEL-5 melanoma, 4.08 µM. Besides, the TGI in the assay on U251 CNS, in the assay on RPMI-8226 leukemia, with NCI-H522 lung, in the assay on A549 NSCLC, in the assay on SK-MEL-2 melanoma and in the assay on CAKI-1 renal was greater than 100 µM each time. Further, the TGI is 46.4 µM in the assay on RXF 393 renal, greater than 100 µM with MALME-3M melanoma, greater than 100 µM with COLO 205 colon and greater than 100 µM with SK-MEL-5 melanoma.

On to `O=C(CO[N+](=O)[O-])Nc1ccc(C(=O)/C=C/c2ccc(Cl)cc2)cc1`, for which the GI50 is 1.48 µM in the assay on U251 CNS; 1.41 µM in the assay with RPMI-8226 leukemia; 2.31 µM with NCI-H522 lung; 5.71 µM in the assay with A549 NSCLC; 9.69 µM with SK-MEL-2 melanoma; 11.8 µM in the assay with CAKI-1 renal. The GI50 in the assay with RXF 393 renal was 4.82 µM; with MALME-3M melanoma it was 2.13 µM; with COLO 205 colon, 2.57 µM; with SK-MEL-5 melanoma it was 4.23 µM. The TGI in the assay with U251 CNS was 3.15 µM; in the assay with RPMI-8226 leukemia, 8.36 µM; in the assay on NCI-H522 lung it was 8.37 µM; in the assay with A549 NSCLC, 20.6 µM; with SK-MEL-2 melanoma, 23.3 µM; in the assay with CAKI-1 renal, 54.5 µM. Further, the TGI was determined as 17.8 µM with RXF 393 renal, 6.61 µM with MALME-3M melanoma, 6.09 µM in the assay on COLO 205 colon and 15.3 µM in the assay on SK-MEL-5 melanoma.
